In US11484032B2, “Compositions for inhibition of insect sensing” (Vanderbilt University, priority 2011, dated 2022):

What was measured:
HvOR2 = test: Whole-cell patch clamp, HEK cells transiently expressing HvOR2; type: cell-based, Heliothis virescens; conditions: HvOR2 transiently transfected HEK cells
From the text: For transient transfections, ORs were cloned into pCl (Promega) and transfected into Flp-In™ T-REx™293 cell lines (Invitrogen) with Fu GENE6 (Roche). For the creation of stable cell lines, a cell culture expression vector capable of expressing Orco in conjunction with a conventional OR, pcDNA5/FRT/TO (Invitrogen) was modified to create two individual expression cassettes each under the control of a separate CMV/Tet02 promoter and a BGH poly-adenylation signal. Cells (as above) were transfected with the modified pcDNA5 plasmid along with POG44 (a Flp recombinase expression plasmid) to facilitate site-specific recombination. Stable cell lines were selected using Hygromycin B (Invitrogen). Cells were maintained in DMEM (Invitrogen) supplemented with 10% Tetracycline-free FBS (HyClone) and 15 ng/ml Blasticidin. […] Baseline readings were taken for 20 s before automated addition of compound previously diluted in DMSO and assay buffer. […]
Currents from OR-expressing HEK293 cells were amplified with an Axopatch 200b Amplifier (Axon Instruments) and digitized through a Digidata 1322A (Axon Instruments). Electrophysiological data was recorded and analyzed using pCLAMP 10 (Axon Instruments). […]

AgORco+AgOR10 [1] = molecular target: T1, AgORco+AgOR10 (Anopheles gambiae, UniProt Q7QCC7); test: Whole-cell patch clamp, HEK293 cells expressing AgORco+AgOR10; type: cell-based
T1 construct: expressed in transfected cells
T1 sequence (Q7QCC7 1-478): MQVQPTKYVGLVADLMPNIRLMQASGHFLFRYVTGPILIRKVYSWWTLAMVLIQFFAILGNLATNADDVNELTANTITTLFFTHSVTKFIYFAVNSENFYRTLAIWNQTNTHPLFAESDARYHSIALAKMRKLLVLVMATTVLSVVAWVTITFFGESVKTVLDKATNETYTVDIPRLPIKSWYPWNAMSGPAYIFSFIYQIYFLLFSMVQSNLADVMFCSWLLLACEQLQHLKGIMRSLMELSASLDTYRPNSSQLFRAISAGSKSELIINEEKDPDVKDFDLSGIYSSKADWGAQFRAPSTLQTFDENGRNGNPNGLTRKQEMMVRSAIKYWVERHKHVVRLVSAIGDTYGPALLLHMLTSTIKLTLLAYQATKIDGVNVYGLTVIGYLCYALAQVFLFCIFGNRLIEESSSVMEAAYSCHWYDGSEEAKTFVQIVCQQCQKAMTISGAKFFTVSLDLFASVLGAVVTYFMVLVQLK
Description: (§1) Currents from OR-expressing HEK293 cells were amplified with an Axopatch 200b Amplifier (Axon Instruments) and digitized through a Digidata 1322A (Axon Instruments). Electrophysiological data was recorded and analyzed using pCLAMP 10 (Axon Instruments). Electrodes were fabricated from quartz tubing (Sutter Instruments) and pulled to 4-6 MiΩ for whole cell recording. Electrodes were filled with internal solution (120 mM KCl, 30 mM D-glucose, 10 mM HEPES, 2 mM MgCl2, 1.1 mM EGTA, and 0.1 CaCl2) (pH 7.35, 280 mOsm). External (bath) solution contained 130 mM NaCl, 34 mM D-glucose, 10 mM HEPES, 1.5 mM CaCl2), 1.3 mM KH2PO4, and 0.5 MgSO4 (pH 7.35, 300 mOsm). Compounds were diluted in external solution and locally perfused to the recording cell using Perfusion Pencil (Automate Scientific) and controlled by a ValveLink 8.2 controller (Automate Scientific). Whole cell recordings were sampled at 10 kHz and filtered at 5 kHz. Outside-out patches were obtained using 10-15MΩ electrodes pulled from standard glass capillaries (World Precision Instruments) and fire-polished with an MF-830 micro forge (Narishige). Single channel recordings were sampled at 20 kHz. Recordings were reduced to 1 kHz and low-pass filtered at 500 Hz for display and analysis using QuB (SUNY at Buffalo).
To test the hypothesis that VUAA1 directly agonized AgORco, whole-cell patch clamp responses were examined in AgORco+AgOR10 expressing cells as well as HEK293 cells stably expressing AgORco alone. […] The VUAA1-dependent currents in AgORco+AgOR10 cells resembled those resulting from application of benzaldehyde, an orthosteric agonist of AgOR10 (FIG. 3C) (Wang, 2010; Carey, 2010). […] To investigate the specificity of VUAA1 agonism, the inventors transiently transfected HEK cells with the AgORco orthologs of Drosophila melanogaster and Heliothis virescens, DmORco and HvOR2 respectively.

AgORco+AgOR10 [2] = molecular target: T1, AgORco+AgOR10; test: Fluo-4 Ca2+ imaging, HEK293 cells expressing Orco+AgOR10; type: cell-based; conditions: AgORco+AgOR10 cells; not seen in control cells
Outline: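 Stable Flp-In T-REx 293 lines co-expressing Orco and OR, induced overnight with 0.3 u-g/ul tetracycline, loaded with 1.8 uM Fluo-4 AM plus 2.5 mM probenecid for 45 min at 37 °C. Ca2+ mobilization read after 20 s baseline and compound addition; Max/Min ratios normalized to the maximum responder.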

AgORco = molecular target: T2, AgORco (Anopheles gambiae, UniProt Q7QCC7); test: Single-channel recording, outside-out patches from AgORco-expressing HEK293 cells; type: biochemical
T2 construct: expressed in transfected cells
T2 sequence (Q7QCC7 1-478): T1 sequence (Q7QCC7 1-478)
Description: as §1, with “Buffalo). […]” for “Buffalo).”

## CCc1ccc(NC(=O)CSc2nnc(-c3cccnc3)n2CC)cc1 [VUAA1, 2-((4-ethyl-5-(pyridin-3-yl)-4H-1,2,4-triazol-3-yl)thio)-N-(4-ethylphenyl)acetamide]
HvOR2
  whole-cell current response: robust inward currents
AgORco+AgOR10 [1]; AgORco+AgOR10 cells, holding potential −60 mV
  whole-cell current response: concentration-dependent inward currents
AgORco+AgOR10 [1]; AgORco+AgOR10 complexes, mean s.e.m.
  reversal potential of agonist-induced current: −4.8±3.0 mV
AgORco+AgOR10 [1]; −5.0 log M
  whole-cell current response at −5.0 log M: inward currents
AgORco+AgOR10 [2]
  response in plate-based calcium imaging: concentration-dependent responses
AgORco; VUAA1-evoked, mean±st. dev.
  average unitary current of AgORco: 1.3±0.3 pA
AgORco; during 5 s application of −4.0 log M VUAA1, patch held at −60 mV
  channel opening probability P0: 0.38
